Consider eight compounds from patent US9968570B2, “Compositions and methods for treating cancer” (Chemo-Enhanced LLC, priority 2013, dated 2018).

One assay deals with CaOV3 cells. Description: Confocal microscopy of C6-NBD ceramide entry into ovarian cancer cells. To be noted: for effect on C6 ceramide entry into the cells: CaOV3 cells pretreated with inhibitor, C6-NBD-ceramide; for effect on polarized entry of C6 ceramide: CaOV3 cells pretreated 1 h, then C6-NBD. Format: cell-based, human. On the procedure:
(A and C) CaOV3 cells were cultured in 8-well chamber slides and treated with C6-NBD ceramide (6 μg/ml). (B) The cells were fixed with formaldehyde at various times following treatment or were treated with the indicated doses of C6-NBD-ceramide, with or without fixation. The cells were processed and observed under a confocal microscope.
CaOV3 cells were cultured in 8-well chamber slides and treated with or without (A) a lipid raft/caveolae inhibitor or with (B) water channel inhibitors, CuSO4 or NiCl2. The cells were fixed with formaldehyde, processed and observed under a confocal microscope.
(A) CaOV3 cells were cultured in 8-well chamber slides, pretreated with taxol or doxorubicin for 1 h and then treated with C6-NBD-ceramide for 5 or 15 min. The cells were fixed with formaldehyde and processed for confocal microscopy. (B) The cells were pretreated with taxol and then C6-NBD-ceramide and processed for confocal microscopy without fixation.
The cells were plated in eight-well chamber slides (Lab-Tek; Nalge Nunc International, Naperville, Ill., USA) and treated with various reagents, including C6-NBD ceramide, taxol and CuSO4. Next, the cells were either left untreated or were fixed for 20 min in fresh 4% paraformaldehyde-PBS. The cell nuclei were also stained with Hoechst (1 μg/ml in PBS) for 10 min. The slides were mounted with anti-fade (Life Technologies, Grand Island, N.Y., USA) and stored in the dark until viewing. The samples were observed under a confocal microscope and images were captured by Zen 2009 Light Edition (Carl Zeiss AG, Oberkochen, Germany).

Assay [1] has as its system L3.6 pancreatic cancer cells. Description: MTT cell viability assay, C6-Ceramide / chemo agents / pathway inhibitors. The format is cell-based, human. To be noted: L3.6 (FIG. 6A), basic DMEM; Gemcitabine 3 μg/ml, Taxol 15 ug/ml, C6-Ceramide 10 ug/ml, Cetuximab 10 ug/ml.
The test system of assay [2] is L3.6 pancreatic cancer cells. Described as above. The format is cell-based, human. To be noted: 48 h; for cell death: MTT; for L3.6 cell viability, agent alone: LY 294002 1 μM, rapamycin 100 nM, U0126 1 μg/ml, Gemcitabine 1 μg/ml. On the procedure: L3.6 pancreatic cancer cells, cultured either in basic DMEM medium or with 10% FBS, were treated with indicated doses of Taxol in the presence or absence of C6 Ceramide (10 μg/ml) for 48 hours, cell viability was detected by MTT assay (FIGS. 4A and B). L3.6 cells, cultured either in basic DMEM medium or with 10% FBS, were treated with indicated dose of C6 Ceramide in the presence or absence of Taxol (1.5 μg/ml) for 48 hours, cell viability was detected by MTT assay as described (FIGS. 4C and D). Mitomycin C (10 μg/ml) was always present in the media to prevent cell proliferation from occurring. The data represent the mean±SD of at least triplicate experiments. *P<0.05 versus group without C6 Ceramide presents (FIGS. 4A and B). **P<0.05 versus group without Taxol presents (C and D).
(§1) Mitomycin C (10 ug/ml) was always present in the media to prevent cell proliferation from occurring.
FIG. 9 depicts data showing the effect of survival pathway inhibitors on cytotoxicity of Taxol and Gemcitabine in L3.6 pancreatic tumor cells. L3.6 cells were pretreated with various inhibitors including PI3K/AKT inhibitor LY 294002 (LY, 1 μM), mTORC1 inhibitor rapamycin (100 nM), MEK/ERK inhibitor U0126 (1 μg/ml), alone or in the presence of Taxol (1.5 μg/ml) or Gemcitabine (1 μg/ml) for 48 hours, with cell death detected 48 hours later (FIG. 9, left). Effects of various inhibitors as mentioned above on AKT/mTORC1 and ERK activation were also examined by Western blots using commercially available antibodies (FIG. 9, right). *P<0.05 versus group without C6 Ceramide presents. […] In FIG. 9, left panel, the DMSO=left bar; LY294002=second left bar; U0126=middle bar; Rapamycin=second right bar; and LY+U0126=right bar.
(§2) Cell viability was measured by the 3-(4,5-dimethylthiazol-2-yl)-2,5-diphenyltetrazolium bromide (MTT) method, as described previously (Cao, C., et al. Sci Signal, 2: ra17, 2009; and Vanhaesebroeck, B., et al. Annu Rev Biochem, 70: 535-602, 2001). Briefly, the cells were collected and seeded in 96-well plate at a density of 2×10^5 cells/cm^2. Different seeding densities were optimized at the beginning of the experiments. After overnight incubation cells were exposed to fresh medium containing indicated reagents at 37° C. After incubation for different time periods, 20 μl of MTT tetrazolium (Sigma, St. Louis, Mo.) salt dissolved in Hank's balanced salt solution at a concentration of 5 mg/ml was added to each well and incubated in a CO2 incubator for an additional 4 hours. The medium was subsequently aspirated from each well and 150 μl of DMSO (Sigma, St. Louis, Mo.) was added to dissolve formazan crystals and the absorbance of each well was obtained using a Dynatech MR5000 plate reader at a test wavelength of 490 nm with a reference wavelength of 630 nm.

The next assay deals with L3.6 pancreatic cells. The format is in vivo. To be noted: for tumor volume and mouse survival: Taxol 3 mg/kg, C6-Ceramide 10 mg/kg, I.P. 3x/wk, vs control treatment group. On the procedure:
SCID/Beige/Taconic nude male mice, 22-25 g, 6-8 weeks old were ear tagged and randomized into 4 different groups (Control, Ceramide, Paclitaxel, Ceramide+Paclitaxel) of 5 mice each prior to inoculation s.c. with 2×10^6 L3.6 cells in a volume 0.1 ml into the internal surface of the right thigh. Treatment was started 4 days after L3.6 cell injection with thrice weekly (3×/wk) intraperitoneal (I.P.) injections of Paclitaxel 3.0 mg/kg with or without C6-Ceramide (10 mg/kg) for 2 weeks. Mice survival (A and C), tumor volume (in cm^3) (B), mice body weight (in grams) were recorded (E). Average rate of tumor development was calculated by total tumor volume dividing by total number of days monitored (D).
FIG. 7A and FIG. 7D: SCID/Beige/Taconic nude male mice, 22-25 g, 6-8 weeks old were ear tagged and randomized into 4 different groups (Control, Ceramide, Gemcitabine, Ceramide+Gemcitabine) combining 5 mice each prior to inoculation s.c. with 2×10^6 L3.6 cells in a volume 0.1 ml into the internal surface of the right thigh. Treatment was started 4 days after L3.6 cell injection with thrice weekly (3×/wk) intraperitoneal (I.P.) injections of Gemcitabine (two doses: […]) with or without C6-Ceramide ([…]) for 2 weeks. […] Mice survival (A, B and E) and tumor volume (in cm^3) (C and D) were recorded (E). In (E), the left bar indicates treatment without C6, and the right bar indicates treatment with C6.
SCID/Beige/Taconic male mice were inoculated with 2×10^6 L3.6 pancreatic cells and begun treatment 4 days post tumor implant with thrice weekly (3×/wk) intraperitoneal (I.P.) injections of Paclitaxel (Taxol) 3.0 mg/kg or Gemcitabine (Gem) 10 mg/kg—after treatment and were autopsied when near death (as per IRB committee). Mouse survival, tumor volume (in cm^3), and body weight (in grams) were recorded. Average rate of tumor development was calculated by dividing total tumor volume by total number of days monitored.

The next assay has as its system Panc-1. Description: MTT cell viability assay, C6-Ceramide with chemo agents. Format: cell-based, human. To be noted: Panc-1 (FIG. 6B), basic DMEM; Gemcitabine 3 μg/ml, Taxol 15 ug/ml, C6-Ceramide 10 ug/ml, Cetuximab 10 ug/ml. On the procedure:
as §1, §2

For another assay, the system named is MIA-PaCa2 (MIA) cells. The assay is described as above. Format: cell-based, human. To be noted: MIA cells (FIG. 6C), basic DMEM; Gemcitabine 3 μg/ml, Taxol 15 ug/ml, C6-Ceramide 10 ug/ml, Cetuximab 10 ug/ml. On the procedure: as §1, §2
The next assay concerns AKT/mTORC1 and ERK. The assay is described as follows: Western blot of AKT/mTORC1 and ERK activation in L3.6 cells. The format is cell-based, human. To be noted: 2-6 h, Gemcitabine 1 μg/ml, Taxol 1.5 μg/ml, C6 Ceramide 10 μg/ml. The text has this: Antibody binding was detected with the enhanced chemiluminescence (ECL) detection system (Amersham Biosciences, Piscataway, N.J.).

Where [3] appears, read: L3.6, basic DMEM medium, Taxol 1.5 ug/ml, C6-ceramide 10 ug/ml.
Setting [4] is: L3.6 cultured in 10% FBS, C6-Ceramide 2.5 μg/ml, Taxol 1.5 μg/ml.

Take `O=S(=O)([O-])[O-].[Cu+2]` [CuSO4]: in the assay with CaOV3 cells, the “effect on C6 ceramide entry into the cells” value is given as “inhibits C6 ceramide entry into the cells”.

For `CCCCC[C@@H](O)[C@H]1C(=O)O[C@H](C)[C@@H](O)/C=C/C=C/C=C/C=C/C=C(\C)[C@@H](O)C[C@H](O)C[C@H](O)C[C@H](O)C[C@H](O)C[C@H](O)C[C@@H]1O` [Filipin], in the assay on CaOV3 cells, the “effect on C6 ceramide entry into the cells” value was “inhibited the C6 ceramide entry into the CaOV3 cells”.

On to `CCCCCCCCCCCCC/C=C/[C@@H](O)[C@H](CO)NC(=O)CCCCC` [Fraction C6-ceramide, N-hexanoyl-D-sphingosine], for which the cell death result was “None of Gemcitabine (3 μg/ml), Taxol (15 ug/ml) or C6-Ceramide (10 ug/ml) alone had a significant effect” in assay [1]; “no effect” in assay [2] (setting [3]); “neither of these two alone had any measurable effect” in assay [2] (setting [4]); “None of Gemcitabine (3 μg/ml), Taxol (15 ug/ml) or C6-Ceramide (10 ug/ml) alone had a significant effect” with Panc-1; “None of Gemcitabine (3 μg/ml), Taxol (15 ug/ml) or C6-Ceramide (10 ug/ml) alone had a significant effect” in the assay with MIA-PaCa2 (MIA) cells. Besides, the “tumor volume and mouse survival” value in the assay with L3.6 pancreatic cells is “minimal effects on tumor volume and mouse survival”. Also, in the assay on AKT/mTORC1 and ERK, the “AKT/mTORC1 and ERK activation” value was “moderate inhibition”.

For `N#CC(=C(N)Sc1ccccc1N)C(C#N)=C(N)Sc1ccccc1N` [Fraction U0126, 1,4-diamino-2,3-dicyano-1,4-bis[2-aminophenylthio]butadiene], in assay [2] (Taxol 1.5 μg/ml), the “L3.6 cell viability, agent alone” value is “little or no significant effect”.

Turning to `Nc1ccn([C@@H]2O[C@H](CO)[C@@H](O)C2(F)F)c(=O)n1` [Gemcitabine, gemcitabine], the cell death entry in assay [1] was “None of Gemcitabine (3 μg/ml), Taxol (15 ug/ml) or C6-Ceramide (10 ug/ml) alone had a significant effect”; in the assay on Panc-1, “None of Gemcitabine (3 μg/ml), Taxol (15 ug/ml) or C6-Ceramide (10 ug/ml) alone had a significant effect”; with MIA-PaCa2 (MIA) cells, “None of Gemcitabine (3 μg/ml), Taxol (15 ug/ml) or C6-Ceramide (10 ug/ml) alone had a significant effect”. Further, the “L3.6 cell viability, agent alone” value in assay [2] (Taxol 1.5 μg/ml) is listed as “little or no significant effect”. Further, in the assay on L3.6 pancreatic cells (Gemcitabine 5 mg/kg and 10 mg/kg, C6-ceramide 10 mg/kg, I.P. 3x/wk for 2 weeks), the “survival and tumor growth” value was “limited effect on survival and tumor growth”. In addition, in the assay with AKT/mTORC1 and ERK, the “AKT/mTORC1 and ERK activation” value is “no effect”.

`[Cl][Ni][Cl]` [NiCl2]: in the assay on CaOV3 cells, the “effect on C6 ceramide entry into the cells” value is on record as “does not”.

With `CC(=O)O[C@H]1C(=O)[C@@]2(C)[C@H]([C@H](OC(=O)c3ccccc3)[C@]3(O)C[C@H](OC(=O)[C@H](O)[C@@H](NC(=O)c4ccccc4)c4ccccc4)C(C)=C1C3(C)C)[C@]1(OC(C)=O)CO[C@@H]1C[C@@H]2O` [Taxol, paclitaxel], the cell death result was “None of Gemcitabine (3 μg/ml), Taxol (15 ug/ml) or C6-Ceramide (10 ug/ml) alone had a significant effect” in assay [1]; 30% in assay [2] (setting [3]); “neither of these two alone had any measurable effect” in assay [2] (setting [4]); “None of Gemcitabine (3 μg/ml), Taxol (15 ug/ml) or C6-Ceramide (10 ug/ml) alone had a significant effect” with Panc-1; “None of Gemcitabine (3 μg/ml), Taxol (15 ug/ml) or C6-Ceramide (10 ug/ml) alone had a significant effect” with MIA-PaCa2 (MIA) cells. In assay [2] (Taxol 1.5 μg/ml), the “L3.6 cell viability, agent alone” value is “little or no significant effect”. In addition, in the assay with L3.6 pancreatic cells, the “tumor volume and mouse survival” value was “minimal effects on tumor volume and mouse survival”. Besides, in the assay on CaOV3 cells, the “effect on polarized entry of C6 ceramide” value is “disrupted the polarized pattern of C6 entry”.

On to `COc1cccc2c1C(=O)c1c(O)c3c(c(O)c1C2=O)C[C@@](O)(C(=O)CO)C[C@@H]3O[C@H]1C[C@H](N)[C@H](O)[C@H](C)O1` [doxorubicin], for which the “effect on polarized entry of C6 ceramide” value in the assay with CaOV3 cells was “had no such effect”.
